# Results taken from US20220290200A1, “GENETICALLY MODIFIED HOST CELLS PRODUCING GLYCOSYLATED CANNABINOIDS” (OCTARINE BIO IVS, priority 2019, published 2022).
# Like-named read-outs stand apart in the source and are kept apart here.
# Legend:
# [1] = Caco-2 bi-directional permeability assay; format: in vitro ADME, human; settings: human
# Method: (§1) Intestinal permeability of cannabinoids and glycosylated cannabinoids was determined by measuring bi-directional transport across Caco-2 cell membranes. Caco-2 cells are used as an in vitro model of the human intestinal epithelium and permit assessment of the intestinal permeability of potential drugs. The test compound is added to either the apical or basolateral side of a confluent monolayer of Caco-2 cells and permeability is measured by monitoring the appearance of the test compound on the opposite side of the monolayer using LC-MS/QTOF. When performing a bi-directional assay, the efflux ratio (ER) is calculated from the ratio of B−A and A−B permeabilities. Caco-2 cells obtained from the ATCC are used between passage numbers 40-60. Cells are seeded onto Millipore Multiscreen Transwell plates at 1×10^5 cells/cm2. The cells are cultured in DMEM and media is changed every two or three days. On day 20 the permeability study is performed. Cell culture and assay incubations are carried out at 37° C. in an atmosphere of 5% CO2 with a relative humidity of 95%. On the day of the assay, the monolayers are prepared by rinsing both apical and basolateral surfaces twice with Hanks Balanced Salt Solution (HBSS) at the desired pH warmed to 37° C. Cells are then incubated with HBSS at the desired pH in both apical and basolateral compartments for 40 min to stabilize physiological parameters. 10 mM solutions of cannabinoids and cannabinoid glycosides are prepared in DMSO then diluted with assay buffer to give a final test compound concentration of 10 μM (final DMSO concentration of 1% v/v). The fluorescent integrity marker lucifer yellow is also included in the solution.
# (§2) Analytical standards are prepared from test compound DMSO dilutions and transferred to buffer, maintaining a 1% v/v DMSO concentration. For assessment of A−B permeability, HBSS is removed from the apical compartment and replaced with test compound solution. The apical compartment insert is then placed into a companion plate containing fresh buffer (containing 1% v/v DMSO). For assessment of B−A permeability, HBSS is removed from the companion plate and replaced with test compound solution. Fresh buffer (containing 1% v/v DMSO) is added to the apical compartment insert, which is then placed into the companion plate. At 120 min the apical compartment inserts and the companion plates are separated and apical and basolateral samples diluted for analysis. Test compound permeability is assessed in duplicate. Compounds of known permeability characteristics are run as controls on each assay plate. Test and control compounds are quantified by LC-MS/QTOF as described above. The starting concentration (C0) is determined from the solution and the experimental recovery calculated from C0 and both apical and basolateral compartment concentrations. The integrity of the monolayer throughout the experiment is checked by monitoring lucifer yellow permeation using fluorometric analysis. The permeability coefficient (Papp) for each compound is calculated from the following equation: Papp=(dQ/dt)/(C0×A) Where dQ/dt is the rate of permeation of the drug across the cells, C0 is the donor compartment concentration at time zero and A is the area of the cell monolayer. C0 is obtained from analysis of the dosing solution. The efflux ratio (ER) is calculated from mean Papp values from A−B and B−A data. This is derived from: ER=Papp(B−A)/Papp(A−B). The % recovery is calculated from the following equation; % recovery=(Total compound in donor and receiver compartment at end of experiment)/(initial compound present)×100.
# (§3) CBD glycosides were produced using glycosyl transferases and purified as described above. […] Low recovery of compound in a Caco-2 permeability assay can indicate problems with poor solubility, binding of the compound to the plate, metabolism by the Caco-2 cells or accumulation of the compound in the cell monolayer.
# Caco-2 cells = assay: Caco-2 bi-directional permeability assay; format: in vitro ADME, human; settings: for efflux ratio compared to CBD / permeability coefficient (Papp) A to B and B to A compared to unmodified CBD: Caco-2, 10 μM; for efflux ratio compared to CBD / permeability coefficient (Papp) A to B and B to A compared to unmodified CBD / Mean recovery (%), Direction A→B / Mean Papp, Direction A→B / Mean recovery (%), Direction B→A / Mean Papp, Direction B→A: 120 min; for % recovery compared to CBD: Caco-2, both compartments; for Mean recovery (%), Direction A→B / Mean Papp, Direction A→B: apical to basolateral; for Mean Papp, Direction A→B / Mean Papp, Direction B→A: mean and standard deviation of duplicates; for Mean recovery (%), Direction B→A / Mean Papp, Direction B→A: basolateral to apical; for Efflux ratio: ratio of B−A and A−B permeabilities
# Method: as §1, §2, §3
# [2] = In vitro enzymatic cascade converting sucrose and CBD to CBD glycosides; format: biochemical; settings: enzymes added: GmSuSy, Cs73Y
# Description: In the previous examples, in vitro glycosyl transferase assays required the addition of an “activated” sugar (e.g. UDP-glucose), which is typically an extremely expensive reagent, furthermore, other activated sugars e.g. UDP-rhamnose are not available commercially and must be custom synthesized at high-cost and difficulty. […] To facilitate the low-cost production of cannabinoid glycosides not only with glucose, but with alternative sugars, an enzymatic cascade was set up to convert cannabinoids and the simple sugar sucrose into various cannabinoid glycosides. The cascade is divided into 3 steps, in step 1 sucrose and uridine diphosphate (UDP) is converted to UDP-glucose by GmSuSy (SEQ ID NO: 209, 210), additionally generating fructose as a bi-product. In step 2, UDP-glucose is interconverted to alternative UDP-sugars using a range of enzymes. For example, conversion of UDP-glucose to UDP-galactose by BsGa/E, multiple enzymes can also be used to produce UDP-sugars via other UDP-sugar intermediates. For example, conversion of UDP-glucose to UDP-glucuronic acid by AtUGDH1 combined with conversion of UDP-glucuronic acid to UDP-xylose by AtUXS3. In step 3, glycosyl transferases convert the activated sugar and a cannabinoid acceptor to the corresponding cannabinoid glycoside. For example, conversion of UDP-rhamnose and CBD to CBD-1′-O-β-D-rhamnoside (OB13) by Cs73Y (SEQ ID NO: 157, 158).
# Enzymes were purified and the in vitro assay performed as described in Example 13 and the reaction mixture set up as shown in table 57. Enzymes and co-factors were added as required for each individual reaction. Samples were extracted and analyzed as stated above.
Structure (SMILES),"recovery at 120 min, 10 μM ([1]; Caco-2, apical to basolateral, 120 min, read-out: Mean recovery (%), Direction A→B)","recovery at 120 min, 10 μM ([1]; Caco-2, basolateral to apical, 120 min, read-out: Mean recovery (%), Direction B→A)","Papp A→B at 120 min, 10 μM ([1]; Caco-2, apical to basolateral, 120 min, mean and standard deviation of duplicates, read-out: Mean Papp, Direction A→B)","Papp B→A at 120 min, 10 μM ([1]; Caco-2, basolateral to apical, 120 min, mean and standard deviation of duplicates, read-out: Mean Papp, Direction B→A)","efflux ratio at 120 min, 10 μM ([1]; Caco-2, ratio of B−A and A−B permeabilities)",efflux ratio compared to CBD (Caco-2 cells),permeability coefficient (Papp) A to B and B to A compared to unmodified CBD (Caco-2 cells),% recovery compared to CBD (Caco-2 cells),"Mean recovery (%), Direction A→B (Caco-2 cells)","Mean Papp, Direction A→B (Caco-2 cells)","Mean recovery (%), Direction B→A (Caco-2 cells)","Mean Papp, Direction B→A (Caco-2 cells)",Efflux ratio (Caco-2 cells),% Conversion of CBD and sucrose to CBD glycoside [2]
"C=C(C)[C@@H]1CCC(C)=C[C@H]1c1c(O)cc(CCCCC)cc1O [CBD, cannabidiol, reference compound]",16.4%,48.8%,0.61 ± 0.03 ×10⁻⁶ cm/s,1.45 ± 0.64 ×10⁻⁶ cm/s,2.37,–,–,–,–,–,–,–,–,–
"C=C(C)[C@@H]1CCC(C)=C[C@H]1c1c(O)cc(CCCCC)cc1O[C@@H]1O[C@H](CO)[C@@H](O)[C@H](O)[C@H]1O [OB1, CBD-1′-O-β-D-glucoside]",–,–,–,–,–,higher efflux ratio,significantly higher permeability coefficients in both directions,successively higher rates of recovery,69.8%,10.40 ± 0.31 10^−6 cms^−1,79.7%,35.70 ± 0.34 10^−6 cms^−1,3.43,–
"C=C(C)[C@@H]1CCC(C)=C[C@H]1c1c(O[C@@H]2O[C@H](CO)[C@@H](O)[C@H](O)[C@H]2O)cc(CCCCC)cc1O[C@@H]1O[C@H](CO)[C@@H](O)[C@H](O)[C@H]1O [OB6, CBD-1′-O-β-D-glucosyl-3′-O-β-D-glucoside]",–,–,–,–,–,higher than both CBD and OB1,permeability coefficients were lower,successively higher rates of recovery,91.9%,0.10 ± 0.05 10^−6 cms^−1,87.8%,0.44 ± 0.17 10^−6 cms^−1,4.31,91.3%
